Measured values: ChEMBL document CHEMBL1201862, “PubChem BioAssay data set” (2004)
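Step 1: Grow cells in 96-well plates. Step 2: Expose to compound for 48 hours at 5 concentrations. Step 3: Interpolate endpoints linearly; if unreached, use highest concentration. Here, GI50 denotes the concentration required for 50% inhibition of growth.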 Activity calls are given as the source filed them. Rule as the data show it: active = GI50 up to about 1.1 µM and inactive = higher.

Key:
Test in all cases: DTP human tumour cell line panel, 48 h
DMS-114 = tested on: DMS-114
XF498 = tested on: XF498
SNB-78 = tested on: SNB-78
LXFL 529 = tested on: LXFL 529
DMS-273 = tested on: DMS-273
RXF 631 = tested on: RXF 631
DLD-1 = tested on: DLD-1
HOP-18 = tested on: HOP-18
KM-20L2 = tested on: KM-20L2

Row | Compound | GI50 (DMS-114) | GI50 (XF498) | GI50 (SNB-78) | GI50 (LXFL 529) | GI50 (DMS-273) | GI50 (RXF 631) | GI50 (DLD-1) | GI50 (HOP-18) | GI50 (KM-20L2)
1 | N#Cc1sc2nc3c(c(-c4ccccc4)c2c1N)CCCC3 | 0.225 µM (active) | 37.9 µM (inactive) | 56 µM (inactive) | > 100 µM (inactive) | 57.9 µM (inactive) | 9.25 µM (inactive) |  |  | 
2 | O=C(O)\C=C/C=C/C=C/C=C/C(=O)O | > 100 µM (inactive) |  | > 100 µM (inactive) | > 100 µM (inactive) | > 100 µM (inactive) |  | > 100 µM (inactive) | > 100 µM (inactive) | > 100 µM (inactive)
3 | O=[As]O | 13.1 µM (inactive) | 17.5 µM (inactive) | 12.6 µM (inactive) | 16.2 µM (inactive) | 24.2 µM (inactive) | 10.1 µM (inactive) | 17.8 µM (inactive) |  | 48.3 µM (inactive)
4 | C1COCCSC2=C(SCCO1)SC(=C1SC3=C(SCCOCCOCCS3)S1)S2 | 63.5 µM (inactive) | 28.6 µM (inactive) | 38 µM (inactive) | > 100 µM (inactive) | > 100 µM (inactive) |  | > 100 µM (inactive) | > 100 µM (inactive) | > 100 µM (inactive)
5 | CCCc1nc(NC#N)nc(C(=O)Nc2ccccc2)c1CC | > 100 µM (inactive) | > 100 µM (inactive) | > 100 µM (inactive) | > 100 µM (inactive) | > 100 µM (inactive) | > 100 µM (inactive) | > 100 µM (inactive) | > 100 µM (inactive) | > 100 µM (inactive)
6 | CC12C=C[C@]3(CC[C@@H]4[C@@](C)(CO)CCC[C@]4(C)C3CC1)C2 (some centres undefined) | 15.5 µM (inactive) | 19.6 µM (inactive) | 18.6 µM (inactive) | 16.9 µM (inactive) | 16.1 µM (inactive) |  | > 10 µM (inactive) |  | 0.382 µM (active)
7 | CCc1ccc(/C=C\c2cc(OC)c(OC)c(OC)c2)cc1 | 0.0508 µM (active) |  | 0.15 µM (active) | 0.211 µM (active) | 0.305 µM (active) |  | 0.378 µM (active) | 0.48 µM (active) | 0.0342 µM (active)
8 | C#CCOCn1cnc2c(S)ncnc21 | > 100 µM (inactive) | > 100 µM (inactive) |  | > 100 µM (inactive) | > 100 µM (inactive) | > 100 µM (inactive) | > 100 µM (inactive) |  | > 100 µM (inactive)
9 | CC1(C)OC(=O)C(=Cc2ccc(O)cc2)C(=O)O1 | > 100 µM (inactive) | > 100 µM (inactive) | > 100 µM (inactive) | > 100 µM (inactive) | > 100 µM (inactive) |  |  |  | > 100 µM (inactive)
10 | Nc1ccc(/C=C/c2ccnc3ccccc23)cc1 | 15.1 µM (inactive) |  |  | 19.7 µM (inactive) | 18.1 µM (inactive) |  | 22.9 µM (inactive) |  | 20.2 µM (inactive)
11 | N#CCC(=O)Nc1ccccc1O |  | > 100 µM (inactive) | > 100 µM (inactive) | > 100 µM (inactive) | > 100 µM (inactive) | > 100 µM (inactive) | > 100 µM (inactive) | > 100 µM (inactive) | > 100 µM (inactive)
12 | CC(c1ccccc1)N1O[C@]12CC[C@@]1(C)C(CCCC13OCCO3)C2 (some centres undefined) | 13.4 µM (inactive) | 22.5 µM (inactive) | 20.3 µM (inactive) |  | 19.2 µM (inactive) |  | 17.1 µM (inactive) |  | > 100 µM (inactive)
13 | c1ccc(COc2cccc3cccnc23)cc1 | 36.3 µM (inactive) | 70.8 µM (inactive) |  | 47.8 µM (inactive) |  | > 100 µM (inactive) | > 100 µM (inactive) | 21.6 µM (inactive) | > 100 µM (inactive)
14 | CCCCCN(CCCCC)C(=O)[C@H](CCC(=O)O)NC(=O)c1cc2ccccc2[nH]1 | 52.5 µM (inactive) | 44.9 µM (inactive) | 95.1 µM (inactive) | 56.6 µM (inactive) | 49.2 µM (inactive) |  | 38.3 µM (inactive) |  | 55.3 µM (inactive)
15 | Nc1cc2c(C3OC(CO)C(O)C3O)n[nH]c2c(=S)[nH]1 (centres undefined) | > 100 µM (inactive) | > 100 µM (inactive) | > 100 µM (inactive) | > 100 µM (inactive) | > 100 µM (inactive) | > 100 µM (inactive) | > 100 µM (inactive) |  | > 100 µM (inactive)
16 | O=C1NC2(NC(=O)C1=O)Nc1ccccc1S2 | 28.4 µM (inactive) |  | > 67.1 µM (inactive) | 36.6 µM (inactive) | 42.1 µM (inactive) | 20 µM (inactive) | 23.7 µM (inactive) | > 100 µM (inactive) | > 100 µM (inactive)
17 | O=C1/C(=C/c2ccccc2Cl)COc2ccc(Br)cc21 | 38.3 µM (inactive) | 27.2 µM (inactive) | 43.1 µM (inactive) | 63 µM (inactive) | 32.3 µM (inactive) |  | 65.9 µM (inactive) | 54.1 µM (inactive) | > 100 µM (inactive)
18 | CC1=NN(C(=O)CC(=O)NC(=O)CC(=O)Nc2ccccc2F)C(=O)C1/N=N/c1ccc([N+](=O)[O-])cc1 (centres undefined) | 21.1 µM (inactive) | 28.3 µM (inactive) | > 100 µM (inactive) | 37.2 µM (inactive) | 39.1 µM (inactive) | 30.2 µM (inactive) | 42.3 µM (inactive) | 31.5 µM (inactive) | 29.8 µM (inactive)
19 | CC(=O)OCC1OC(n2cc(I)c(=O)[nH]c2=O)C(OC(C)=O)C(OC(C)=O)C1OC(C)=O (centres undefined) | > 100 µM (inactive) | > 100 µM (inactive) |  | > 100 µM (inactive) | > 100 µM (inactive) |  | > 100 µM (inactive) | > 100 µM (inactive) | > 100 µM (inactive)
20 | CC1=C(C(=O)Nc2ccc(Cl)c(Cl)c2)C(c2ccco2)C(C(=O)Nc2ccc(Cl)c(Cl)c2)=C(C)N1 | 9.16 µM (inactive) | 1.11 µM (active) | 17.3 µM (inactive) | 11.9 µM (inactive) | 16 µM (inactive) | 12.9 µM (inactive) | 10.3 µM (inactive) | 12.5 µM (inactive) | 
21 | COC1OC(C)C(OCc2ccccc2)C(OS(=O)(=O)c2ccc(C)cc2)C1OS(=O)(=O)c1ccc(C)cc1 (centres undefined) | > 100 µM (inactive) |  | > 100 µM (inactive) | > 100 µM (inactive) | > 100 µM (inactive) |  | > 100 µM (inactive) | > 100 µM (inactive) | > 100 µM (inactive)
22 | O=c1nc2sc3ccc4ccccc4c3n2nc1O | 75.2 µM (inactive) |  | 70.3 µM (inactive) | 68.1 µM (inactive) | 39.8 µM (inactive) |  | 40.9 µM (inactive) | 71.3 µM (inactive) | 25.3 µM (inactive)
23 | Cc1ccc(C)c(N2C(=O)C(=O)C(c3nc4ccccc4s3)/C(=N/NC(=O)NN)C2=O)c1 (centres undefined) | > 100 µM (inactive) | > 100 µM (inactive) | > 100 µM (inactive) | > 100 µM (inactive) | > 100 µM (inactive) | > 100 µM (inactive) | > 100 µM (inactive) | > 100 µM (inactive) | > 100 µM (inactive)
